Results taken from patent US11535594B2, “Microbiocidal picolinamide derivatives” (Syngenta Participations AG, priority 2017, dated 2022).

Experiments:
[1] = test system: Magnaporthe grisea (Pyricularia oryzae); assay: whole plant or invertebrate; assay type: in vivo; settings: foliar, read-out: disease control
[2] = test system: Mycosphaerella arachidis (Cercospora arachidicola); assay: Mycosphaerella arachidis (Cercospora arachidicola) / liquid culture (early leaf spot); assay type: cell-based; settings: PDB potato dextrose broth, 24° C., 4-5 days after application, compared to untreated checks, read-out: disease control (inhibition of growth, photometric)
Experimental: Mycosphaerella arachidis (Cercospora arachidicola)/Liquid Culture (Early Leaf Spot) Conidia of the fungus from cryogenic storage are directly mixed into nutrient broth (PDB potato dextrose broth). After placing a (DMSO) solution of test compound into a microtiter plate (96-well format), the nutrient broth containing the fungal spores is added. The test plates are incubated at 24° C. and the inhibition of growth is determined photometrically 4-5 days after application.

[3] = test system: Mycosphaerella Graminicola (Septoria tritici); assay: Mycosphaerella graminicola (Septoria tritici) / liquid culture (Septoria blotch); assay type: cell-based; settings: Zymoseptoria tritici, PDB potato dextrose broth, 24° C., 4 to 5 days after application, compared to untreated checks, read-out: disease control (inhibition of growth, photometric)
Experimental: Mycosphaerella Graminicola (Septoria tritici)/Liquid Culture (Septoria Blotch) Conidia of the fungus from cryogenic storage are directly mixed into nutrient broth (PDB potato dextrose broth). After placing a (DMSO) solution of test compound into a microtiter plate (96-well format), the nutrient broth containing the fungal spores is added. The test plates are incubated at 24° C. and the inhibition of growth is determined photometrically 4 to 5 days after application.

[4] = test system: Puccinia Recondite f. Sp. Tritici; assay: Puccinia recondita f. sp. tritici / wheat / leaf disc preventative (brown rust); assay type: in vivo; settings: foliar, wheat leaf segments cv. Kanzler, inoculated 1 day after application, assessed 7-9 days after application, compared to untreated, read-out: disease control
Experimental: Puccinia Recondite f. Sp. Tritici/Wheat/Leaf Disc Preventative (Brown Rust) Wheat leaf segments cv. Kanzler are placed on agar in multiwell plates (24-well format) and sprayed with the formulated test compound diluted in water. The leaf disks are inoculated with a spore suspension of the fungus 1 day after application. The inoculated leaf segments are incubated at 19° C. and 75% rh under a light regime of 12 h light/12 h darkness in a climate cabinet and the activity of a compound is assessed as percent disease control compared to untreated when an appropriate level of disease damage appears in untreated check leaf segments (7-9 days after application).

[5] = test system: Phaeosphaeria nodorum (Septoria nodorum); assay: Phaeosphaeria nodorum (Septoria nodorum) / wheat / leaf disc preventative (glume blotch); assay type: in vivo; settings: Parastagonospora nodorum, foliar, 120 h, wheat leaf segments cv. Kanzler, inoculated 2 days after application, assessed 5-7 days after application, compared to untreated, read-out: disease control
Experimental: Phaeosphaeria nodorum (Septoria nodorum)/Wheat/Leaf Disc Preventative (Glume Blotch) Wheat leaf segments cv. Kanzler are placed on agar in a multiwell plate (24-well format) and sprayed with the formulated test compound diluted in water. The leaf disks are inoculated with a spore suspension of the fungus 2 days after application. The inoculated test leaf disks are incubated at 20° C. and 75% rh under a light regime of 12 h light/12 h darkness in a climate cabinet and the activity of a compound is assessed as percent disease control compared to untreated when an appropriate level of disease damage appears in untreated check leaf disks (5-7 days after application).

[6] = test system: Glomerella Lagenarium (Colletotrichum lagenarium); assay: Glomerella lagenarium (Colletotrichum lagenarium) / liquid culture (anthracnose); assay type: cell-based; settings: Colletotrichum orbiculare, PDB potato dextrose broth, 24° C., 3 to 4 days after application, compared to untreated checks, read-out: disease control (inhibition of growth, photometric)
Experimental: Glomerella Lagenarium (Colletotrichum lagenarium)/Liquid Culture (Anthracnose) Conidia of the fungus from cryogenic storage are directly mixed into nutrient broth (PDB potato dextrose broth). After placing a (DMSO) solution of test compound into a microtiter plate (96-well format), the nutrient broth containing the fungal spores is added. The test plates are incubated at 24° C. and the inhibition of growth is measured photometrically 3 to 4 days after application.

[7] = test system: Monographella nivalis (Microdochium nivale); assay: Monographella nivalis (Microdochium nivale) / liquid culture (foot rot cereals); assay type: cell-based; settings: PDB potato dextrose broth, 24° C., 4-5 days after application, compared to untreated checks, read-out: disease control (inhibition of growth, photometric)
Experimental: Monographella nivalis (Microdochium nivale)/Liquid Culture (Foot Rot Cereals) Conidia of the fungus from cryogenic storage are directly mixed into nutrient broth (PDB potato dextrose broth). After placing a (DMSO) solution of test compound into a microtiter plate (96-well format), the nutrient broth containing the fungal spores is added. The test plates are incubated at 24° C. and the inhibition of growth is determined photometrically 4-5 days after application.

COc1ccnc(C(=O)N[C@@H](C)C(=O)ON(C)C(C)(c2ccccc2)c2ccccc2)c1O [I.m.02, [1,1-diphenylethyl (methyl)amino] (2S)-2-[(3-hydroxy-4-methoxy-pyridine-2-carbonyl)amino] propanoate]
≥ 80%: pest or weed control at 200 ppm [1] | inhibition at 200 ppm [2] | inhibition at 200 ppm [3] | pest or weed control at 200 ppm [4] | pest or weed control at 200 ppm [5]

COc1ccnc(C(=O)N[C@@H](C)C(=O)ON(C)C(c2ccccc2)c2ccc(F)cc2)c1O (stereo partly drawn) [I.n.01, [[(4-fluorophenyl)-phenyl-methyl]-methyl-amino] (2S)-2-[(3-hydroxy-4-methoxy-pyridine-2-carbonyl)amino]propanoate]
≥ 80%: pest or weed control at 200 ppm [1] | inhibition at 200 ppm [2] | inhibition at 200 ppm [3] | pest or weed control at 200 ppm [4] | inhibition at 200 ppm [6] | pest or weed control at 200 ppm [5] | inhibition at 200 ppm [7]

COc1ccnc(C(=O)N[C@@H](C)C(=O)ON(C)C(c2ccccc2)c2ccc(Cl)cc2)c1O (stereo partly drawn) [I.o.01, [[(4-chlorophenyl)-phenyl-methyl]-methyl-amino] (2S)-2-[(3-hydroxy-4-methoxy-pyridine-2-carbonyl)amino]propanoate]
≥ 80%: inhibition at 200 ppm [2] | inhibition at 200 ppm [3] | pest or weed control at 200 ppm [4] | inhibition at 200 ppm [6] | pest or weed control at 200 ppm [5]

COc1ccnc(C(=O)N[C@@H](C)C(=O)ON(C)C(c2ccc(F)cc2)c2ccc(F)cc2)c1OC(C)=O [I.s.13, [bis(4-fluorophenyl)methyl-methyl-amino] (2S)-2-[(3-acetoxy-4-methoxy-pyridine-2-carbonyl)amino]propanoate]
≥ 80%: inhibition at 200 ppm [2] | inhibition at 200 ppm [3] | pest or weed control at 200 ppm [4] | pest or weed control at 200 ppm [5]

COc1ccnc(C(=O)N[C@@H](C)C(=O)ON(C)C(c2ccc(Cl)cc2)c2ccc(Cl)cc2)c1O [I.u.01, [bis(4-chlorophenyl)methyl-methyl-amino] (2S)-2-[(3-hydroxy-4-methoxy-pyridine-2-carbonyl)amino] propanoate]
≥ 80%: pest or weed control at 200 ppm [1] | inhibition at 200 ppm [2] | inhibition at 200 ppm [3] | pest or weed control at 200 ppm [4] | inhibition at 200 ppm [6] | pest or weed control at 200 ppm [5]

COc1ccnc(C(=O)N[C@@H](C)C(=O)ON(C)C(c2ccc3ccccc3c2)C2CC2)c1O (stereo partly drawn) [I.g.01, [[cyclopropyl(2-naphthyl)methyl]-methyl-amino] (2S)-2-[(3-hydroxy-4-methoxy-pyridine-2-carbonyl)amino] propanoate]
≥ 80%: pest or weed control at 200 ppm [5]

CCC(c1ccc(Cl)cc1)(c1ccc(Cl)cc1)N(C)OC(=O)[C@H](C)NC(=O)c1nccc(OC)c1O [I.u.03, [1,1-bis(4-chlorophenyl)propyl-methyl-amino] (2S)-2-[(3-hydroxy-4-methoxy-pyridine-2-carbonyl)amino]propanoate]
≥ 80%: inhibition at 200 ppm [2] | inhibition at 200 ppm [3] | inhibition at 200 ppm [7]

COc1ccnc(C(=O)N[C@@H](C)C(=O)ON(C)C(c2ccc(C(C)(C)C)cc2)c2ccc(C(C)(C)C)cc2)c1O [I.aa.01, [bis(4-tert-butylphenyl)methyl-methyl-amino] (2S)-2-[(3-hydroxy-4-methoxy-pyridine-2-carbonyl)amino]propanoate]
≥ 80%: inhibition at 200 ppm [3] | inhibition at 200 ppm [7]

COc1ccnc(C(=O)N[C@@H](C)C(=O)ON(C)C(c2ccccc2)C2CC2)c1O (stereo partly drawn) [I.e.01, [[cyclopropyl(phenyl)methyl]-methyl-amino] (2S)-2-[(3-hydroxy-4-methoxy-pyridine-2-carbonyl)amino] propanoate]
≥ 80%: inhibition at 200 ppm [3] | pest or weed control at 200 ppm [5]

COc1ccnc(C(=O)N[C@@H](C)C(=O)ON(C)C(C)(c2ccc(F)cc2)c2ccc(F)cc2)c1OC(C)=O [I.s.14, [1,1-bis(4-fluorophenyl)ethyl-methyl-amino] (2S)-2-[(3-acetoxy-4-methoxy-pyridine-2-carbonyl)amino] propanoate]
≥ 80%: pest or weed control at 200 ppm [1] | inhibition at 200 ppm [2] | inhibition at 200 ppm [3] | pest or weed control at 200 ppm [5]

COc1ccnc(C(=O)N[C@@H](C)C(=O)ON(C)C(c2ccccc2)C(C)C)c1O (stereo partly drawn) [I.d.01, [methyl-(2-methyl-1-phenyl-propyl)amino] (2S)-2-[(3-hydroxy-4-methoxy-pyridine-2-carbonyl)amino] propanoate]
≥ 80%: inhibition at 200 ppm [2] | inhibition at 200 ppm [3] | pest or weed control at 200 ppm [4]

COc1ccnc(C(=O)N[C@@H](C)C(=O)ON(C)C(c2ccccc2)C2CCCC2)c1O (stereo partly drawn) [I.h.01, [[cyclopentyl(phenyl)methyl]-methyl-amino] (2S)-2-[(3-hydroxy-4-methoxy-pyridine-2-carbonyl)amino] propanoate]
≥ 80%: pest or weed control at 200 ppm [1] | inhibition at 200 ppm [2] | inhibition at 200 ppm [3] | pest or weed control at 200 ppm [4] | inhibition at 200 ppm [6] | pest or weed control at 200 ppm [5]

COc1ccnc(C(=O)N[C@@H](C)C(=O)ON(C)C(c2ccccc2)C2CCCCC2)c1O (stereo partly drawn) [I.j.01, [[cyclohexyl(phenyl)methyl]-methyl-amino] (2S)-2-[(3-hydroxy-4-methoxy-pyridine-2-carbonyl)amino] propanoate]
≥ 80%: pest or weed control at 200 ppm [5]

COc1ccnc(C(=O)N[C@@H](C)C(=O)ON(C)C(C)(c2ccc(F)cc2)c2ccc(Cl)cc2)c1O (stereo partly drawn) [I.t.02, [[1-(4-chlorophenyl)-1-(4-fluorophenyl)ethyl]-methyl-amino] (2S)-2-[(3-hydroxy-4-methoxy-pyridine-2-carbonyl)amino]propanoate]
≥ 80%: inhibition at 200 ppm [2] | inhibition at 200 ppm [3] | pest or weed control at 200 ppm [4] | inhibition at 200 ppm [6] | inhibition at 200 ppm [7]

COc1ccnc(C(=O)N[C@@H](C)C(=O)ON(C)C(c2ccccc2)c2ccc3ccccc3c2)c1O (stereo partly drawn) [I.r.01, [methyl-[2-naphthyl(phenyl)methyl]amino] (2S)-2-[(3-hydroxy-4-methoxy-pyridine-2-carbonyl)amino] propanoate]
≥ 80%: pest or weed control at 200 ppm [5]

COc1ccnc(C(=O)N[C@@H](C)C(=O)ON(C)C(c2cc(C)cc(C)c2)c2cc(C)cc(C)c2)c1O [I.x.01, [bis(3,5-dimethylphenyl)methyl-methyl-amino] (2S)-2-[(3-hydroxy-4-methoxy-pyridine-2-carbonyl)amino]propanoate]
≥ 80%: inhibition at 200 ppm [3] | inhibition at 200 ppm [6] | inhibition at 200 ppm [7]
